Test results from PMC6095594, “Pre-clinical evaluation of quinoxaline-derived chalcones in tuberculosis” (PLoS ONE, 2018).
Values after ≈ are worked out from the molar mass of the structure shown. Where two headings read alike, the source gives them in different places.

Columns and labels:
S. typhimurium TA102 = assay: Salmonella/microsome mutagenicity test; settings: TA102, +S9, positive control 5 μg/plate
Method: (§1) Salmonella typhimurium strains TA98, TA97a, TA100, TA1535, and TA102 were provided by MOLTOX® (Molecular Toxicology Inc. USA). Mutagenicity was assayed according to the pre-incubation procedure following the recommendation described in Mortelmans and Zieger (2000). […] Briefly, 100 μL of test bacterial cultures (1–2 x 10^9 cells/mL) were incubated at 37 °C with different concentrations of N9 (10–400 μg/plate) in the presence or absence of S9 mix, for 20 min, without shaking. […] 2-aminoanthracene (2-AA, 5 μg/plate) was used as positive control for all strains in the presence of metabolic activation (with S9 mix). […] Plates were incubated in the dark at 37 °C for 48 h before counting the revertant colonies. Assays were repeated twice and the plating for each concentration was conducted in triplicate. Data were evaluated by one-way analysis of variance (ANOVA), followed by Dunnett's post-test, using GraphPad Prism 5.0 (GraphPad, San Diego, CA, USA).

S. typhimurium TA97a = assay: Salmonella/microsome mutagenicity test; settings: +S9, positive control 5 μg/plate
Method: as §1

S. typhimurium TA98 = assay: Salmonella/microsome mutagenicity test; settings: TA98, +S9, positive control 5 μg/plate
Method: as §1

S. typhimurium TA1535 = assay: Salmonella/microsome mutagenicity test
Method: (§2) Salmonella typhimurium strains TA98, TA97a, TA100, TA1535, and TA102 were provided by MOLTOX® (Molecular Toxicology Inc. USA). Mutagenicity was assayed according to the pre-incubation procedure following the recommendation described in Mortelmans and Zieger (2000). […] Briefly, 100 μL of test bacterial cultures (1–2 x 10^9 cells/mL) were incubated at 37 °C with different concentrations of N9 (10–400 μg/plate) in the presence or absence of S9 mix, for 20 min, without shaking. […] Plates were incubated in the dark at 37 °C for 48 h before counting the revertant colonies. Assays were repeated twice and the plating for each concentration was conducted in triplicate. Data were evaluated by one-way analysis of variance (ANOVA), followed by Dunnett's post-test, using GraphPad Prism 5.0 (GraphPad, San Diego, CA, USA).

S. typhimurium TA100 = assay: Salmonella/microsome mutagenicity test
Method: as §2

[1] = tested on: M. tuberculosis pan-susceptible clinical isolate CDCT-28; assay: microbe, parasite or virus in culture; assay type: cell-based; settings: Mycobacterium tuberculosis
[2] = tested on: M. tuberculosis pNIP::KatG(WT); assay: microbe, parasite or virus in culture; assay type: cell-based; settings: Mycobacterium tuberculosis
[3] = tested on: M. tuberculosis pNIP::control; assay: microbe, parasite or virus in culture; assay type: cell-based; settings: Mycobacterium tuberculosis; pNIP::control (empty vector)
[4] = tested on: M. tuberculosis H37Rv strain; assay: microbe, parasite or virus in culture; assay type: cell-based
M. tuberculosis H37Rv = assay: Checkerboard assay, two-drug combination with REMA readout; assay type: cell-based, Mycobacterium tuberculosis; settings: for MIC: Mycobacterium tuberculosis, read-out: MIC Alone, checkerboard, drug alone, three independent experiments
[5] = tested on: M. tuberculosis H37Rv strain; set-up: method as in Abbadi, 2018; settings: ref Abbadi, 2018; cited from earlier work
[6] = tested on: M. tuberculosis pan-susceptible clinical isolate CDCT-28; settings: cited from earlier work
[7] = TA1535, +S9, positive control 5 μg/plate
[8] = TA100, +S9, positive control 5 μg/plate
[9] = Mycobacterium tuberculosis, H37RV, read-out: MIC
[10] = TA1535, -S9, positive control 1 μg/plate
[11] = TA100, -S9, positive control 1 μg/plate

Structure (SMILES): Nc1ccc2cc3ccccc3cc2c1 [2-AA, 2-aminoanthracene, reference compound]
- MI: mutagenic index (S. typhimurium TA102): 3.62
- Number of revertants/plate (S. typhimurium TA102): 1354.0±21.1 Rev/plate
- MI: mutagenic index (S. typhimurium TA97a): 6.44
- Number of revertants/plate (S. typhimurium TA97a): 742.0±59.4 Rev/plate
- MI: mutagenic index (S. typhimurium TA98): 39.65
- Number of revertants/plate (S. typhimurium TA98): 1586.0±161.2 Rev/plate
- MI: mutagenic index (S. typhimurium TA1535; [7]): 6.96
- Number of revertants/plate (S. typhimurium TA1535; [7]): 58.0±12.7 Rev/plate
- MI: mutagenic index (S. typhimurium TA100; [8]): 11.03
- Number of revertants/plate (S. typhimurium TA100; [8]): 1279.0±50.2 Rev/plate

Structure (SMILES): NNC(=O)c1ccncc1 [INH, isoniazid, reference compound]
- MIC [1]: 0.39 µg/mL (≈ 2.84 µM)
- MIC [2]: < 0.2 µg/mL
- MIC [3]: < 0.2 µg/mL
- MIC [4, 9]: 0.39 µg/mL (≈ 2.84 µM)
- MIC Alone (M. tuberculosis H37Rv; H37RV): 0.16 µg/mL
- MIC (M. tuberculosis H37Rv; H37RV): 0.31 µg/mL

Structure (SMILES): COc1c(N2C[C@@H]3CCCN[C@@H]3C2)c(F)cc2c(=O)c(C(=O)O)cn(C3CC3)c12 [MFX, moxifloxacin, reference compound]
- MIC [5]: <0.2 µg/mL
- MIC (M. tuberculosis H37Rv; H37RV): 0.15 µg/mL
- Improvement of MIC of MFX in the presence of N9 (M. tuberculosis H37Rv; all three experiments): 4 fold

Structure (SMILES): O=C(/C=C/c1ccc2nccnc2c1)c1ccc2c(c1)OCO2 [N3]
- MIC [4, 9]: > 25 µg/mL

Structure (SMILES): O=C(/C=C/c1ccc2nccnc2c1)c1ccc(Br)cc1 [N4]
- MIC [4, 9]: > 25 µg/mL

Structure (SMILES): O=C(/C=C/c1ccc2nccnc2c1)c1ccccc1O [N6]
- MIC [4, 9]: > 5 µg/mL

Structure (SMILES): O=C(/C=C/c1ccc2nccnc2c1)c1ccc([N+](=O)[O-])cc1 [N7]
- MIC [4, 9]: > 25 µg/mL

Structure (SMILES): COc1cc(C(=O)/C=C/c2ccc3nccnc3c2)cc(OC)c1OC [N15]
- MIC [1]: 3.13 µg/mL (≈ 8.93 µM)
- MIC ([4]; H37Rv): 6.25 µg/mL (≈ 17.8 µM)
- MIC [4, 9]: 3.13 to 12.5 µg/mL (≈ 8.93 to 35.7 µM)

Structure (SMILES): COc1cc(OC)c(C(=O)/C=C/c2ccc3nccnc3c2)cc1OC [N17]
- MIC [4, 9]: > 25 µg/mL

Structure (SMILES): COc1ccccc1C(=O)/C=C/c1ccc2nccnc2c1 [N19]
- MIC [4, 9]: > 25 µg/mL

Structure (SMILES): COc1cc(C(=O)/C=C/c2ccc3nccnc3c2)cc(OC)c1O [N20]
- MIC [4, 9]: > 25 µg/mL

Structure (SMILES): COc1cccc(C(=O)/C=C/c2ccc3nccnc3c2)c1 [N23]
- MIC [1]: 2.5 µg/mL (≈ 8.61 µM)
- MIC ([4]; H37Rv): 5 µg/mL (≈ 17.2 µM)
- MIC [4, 9]: 3.13 to 12.5 µg/mL (≈ 10.8 to 43.1 µM)

Structure (SMILES): N#Cc1ccc(C(=O)/C=C/c2ccc3nccnc3c2)cc1 [N33]
- MIC [4, 9]: > 25 µg/mL

Structure (SMILES): N#Cc1cccc(C(=O)/C=C/c2ccc3nccnc3c2)c1 [N34]
- MIC [4, 9]: > 25 µg/mL

Structure (SMILES): COc1ccc(C(=O)/C=C/c2ccc3nccnc3c2)c(OC)c1OC [N36]
- MIC [4, 9]: 25 µg/mL (≈ 71.4 µM)

Structure (SMILES): [N-]=[N+]=[N-].[Na+] [NaN3, sodium azide, reference compound]
- MI: mutagenic index (S. typhimurium TA1535; [10]): 100.0
- Number of revertants/plate (S. typhimurium TA1535; [10]): 1133.0±179.6 Rev/plate
- MI: mutagenic index (S. typhimurium TA100; [11]): 6.03
- Number of revertants/plate (S. typhimurium TA100; [11]): 695.5±40.3 Rev/plate

Structure (SMILES): CO[C@H]1/C=C/O[C@@]2(C)Oc3c(C)c(O)c4c(O)c(c(/C=N/N5CCN(C)CC5)c(O)c4c3C2=O)NC(=O)/C(C)=C\C=C\[C@H](C)[C@H](O)[C@@H](C)[C@@H](O)[C@@H](C)[C@H](OC(C)=O)[C@@H]1C [RIF, Rifampicin]
- MIC [6]: <0.2 µg/mL
- MIC [5]: <0.2 µg/mL
